Results reported in patent US20250223268A1, “4-Methylsulfonylbenzamide Compound, Preparation Method, Herbicidal Composition And Use” (Jiangsu Flag Chemical Industry Co., Ltd., priority 2022, published 2025).

Assays:
Format in all cases: in vivo
Echinochloa crusgalli [1] = assay: Greenhouse herbicidal activity and crop safety comparison (Test Example 2); conditions: for Echinochloa crusgalli, control efficacy grading (fresh weight inhibition rate) / inhibition at 150 g/ha: Rate 150 g/ha; for inhibition at 75 g/ha: Rate 75 g/ha
Description: (§1) Pre-emergence: Seeds of gramineous weeds (Echinochloa crusgalli, Echinochloa crusgalli var. zelayensis, Echinochloa phyllopogon, Eleusine indica, Digitaria sanguinalis, Leptochloa chinensis, Setaria viridis, Alopecurus japonicus Steud, Beckmannia syzigachne, Polypogon fugax, Alopecurus aequalis, Lolium multiflorum, Poa annua, Aegilops tataschii, Avena fatua, Alopecurus myosuroides, Bromus japonicus), broadleaf weeds (Eclipta prostrata, Amaranthus retroflexus, Rorippa indica, Myosoton aquaticum, Veronica didyma, Galium aparine, Solanum nigrum, Xanthium sibiricum, Conyza canadensis, Sesbania cannabina, Sagittaria trifolia), and Cyperus iria (Cyperus iria, Scirpus juncoides, Cyperus difformis, etc.) were sown in plastic pots (7 cm diameter) with nutrient soil and bottom holes. Crop seeds (including Oryza sativa subsp. indica, Oryza sativa subsp. japonica, Oryza sativa L. var. Glutinosa matsum, Triticum aestivum, Zea mays, Sorghum bicolor, Setaria italica, Glycine max, Gossypium hirsutum, Brassica napus, Arachis hypogaea) were sown in plastic pots (10 cm diameter) with nutrient soil and bottom holes. After sowing, the seeds were lightly covered with soil, and the soil was moistened via bottom water absorption. The pots were placed in a constant-temperature light-controlled growth chamber for 24 hours before soil spraying. Spraying was performed using a 3WP-2000 walking-type spray tower (produced by the Nanjing Agricultural Mechanization Institute, Ministry of Agriculture) with a spindle speed of 96 mm/r, spray height of 300 mm, effective spray width of 350 mm, spray area of 0.35 m^2, and nozzle flow rate of 390 mL/min.
(§2) After treatment, the test materials were air-dried naturally in the laboratory and then transferred to the growth chamber. Results were assessed 14-30 days later.
(§3) Post-emergence: Seeds of gramineous weeds (Echinochloa crusgalli, Echinochloa crusgalli var. zelayensis, Echinochloa phyllopogon, Eleusine indica, Digitaria sanguinalis, Leptochloa chinensis, Setaria viridis, Alopecurus japonicus Steud, Beckmannia syzigachne, Polypogon fugax, Alopecurus aequalis, Lolium multiflorum, Poa annua, Aegilops tataschii, Avena fatua, Alopecurus myosuroides, Bromus japonicus), broadleaf weeds (Eclipta prostrata, Amaranthus retroflexus, Rorippa indica, Myosoton aquaticum, Veronica didyma, Galium aparine, Solanum nigrum, Xanthium sibiricum, Conyza canadensis, Sesbania cannabina, Sagittaria trifolia), and Cyperus iria (Cyperus iria, Scirpus juncoides, Cyperus difformis, etc.) were sown in plastic pots (7 cm diameter) with nutrient soil and bottom holes. Crop seeds (including Oryza sativa subsp. indica, Oryza sativa subsp. japonica, Oryza sativa L. var. Glutinosa matsum, Triticum aestivum, Zea mays, Sorghum bicolor, Setaria italica, Glycine max, Gossypium hirsutum, Brassica napus, Arachis hypogaea) were sown in plastic pots (10 cm diameter) with nutrient soil and bottom holes. After sowing, the pots were placed in the growth chamber until the plants reached the 3-6 leaf stage for foliar spraying. Post-treatment, the materials were air-dried naturally and returned to the growth chamber. Results were assessed 14-21 days later.
(§4) • A: Fresh weight inhibition rate≥80% to 100%; • B: Fresh weight inhibition rate[…] to <80%; • C: Fresh weight inhibition rate≥40% to <60%; • D: Fresh weight inhibition rate≥20% to <40%; • E: Fresh weight inhibition rate<20%; • NT: Not tested.
(§5) Using the above method, the herbicidal activity and crop safety of the present compounds were compared with structurally similar known compounds (CK1, CK2, CK3, CK4: compounds 4-756, 4-759, 1-557, 1-563 from WO2012028579A1; CK5: compound 290-1 from WO2013087577A1; CK6: compound 1-129 from WO2011035874A1).

[2] = tested on: Oryza sativa subsp. japonica; assay: as above
Description: as §1, §2, §3, §4, §5

[3] = tested on: Oryza sativa subsp. indica; assay: as above
Description: as §1, §2, §3, §4, §5

Echinochloa crusgalli [4] = assay: Greenhouse herbicidal activity assay, post-emergence; conditions: Post-emergence test, rate 150 g a.i./hm^2, grade by fresh weight inhibition rate; for pest or weed control at 150 g/ha: Echinochloa crus-galli, read-out: Control efficacy grade, Echinochloa crusgalli
Summary of the method: (§6)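 Weeds were sown in nutrient soil in 7 cm pots and grown in a growth chamber to the 3-6 leaf stage, then foliar-sprayed, air-dried and returned to the chamber. Fresh weight inhibition was scored 14-21 days later in bands from A (≥80% to 100%) to E (<20%).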

Eclipta prostrata = assay: as above; conditions: Post-emergence test, rate 150 g a.i./hm^2, grade by fresh weight inhibition rate; for pest or weed control at 150 g/ha: Eclipta prostrata, read-out: Control efficacy grade, Eclipta prostrata
Summary of the method: as §6

Leptochloa chinensis = assay: as above; conditions: Post-emergence test, rate 150 g a.i./hm^2, grade by fresh weight inhibition rate; for pest or weed control at 150 g/ha: Dinebra chinensis, read-out: Control efficacy grade, Leptochloa chinensis
Summary of the method: as §6

Digitaria sanguinalis = assay: as above; conditions: Post-emergence test, rate 150 g a.i./hm^2, grade by fresh weight inhibition rate; for pest or weed control at 150 g/ha: Digitaria sanguinalis, read-out: Control efficacy grade, Digitaria sanguinalis
Summary of the method: as §6

Cyperus iria = assay: as above; conditions: Post-emergence test, rate 150 g a.i./hm^2, grade by fresh weight inhibition rate; for pest or weed control at 150 g/ha: Cyperus iria, read-out: Control efficacy grade, Cyperus iria
Summary of the method: as §6

[5] = Echinochloa crus-galli, read-out: Echinochloa crusgalli, control efficacy grading (fresh weight inhibition rate)

Row | SMILES | Oryza sativa subsp. japonica, grading of fresh weight inhibition rate (crop safety) ([2]; Rate 150 g/ha) | Oryza sativa subsp. indica, grading of fresh weight inhibition rate (crop safety) ([3]; Rate 150 g/ha) | Control efficacy grade, Echinochloa crusgalli (Echinochloa crusgalli [4]) | Oryza sativa subsp. japonica, grading of fresh weight inhibition rate (crop safety) ([2]; Rate 75 g/ha) | Oryza sativa subsp. indica, grading of fresh weight inhibition rate (crop safety) ([3]; Rate 75 g/ha) | inhibition at 150 g/ha (Echinochloa crusgalli [1]; [5]) [%] | further results
1 | CCC[S+]([O-])c1c(S(C)(=O)=O)ccc(C(=O)N(C)c2nnc(C(C)C)o2)c1Cl (racemic) [Compound 3-801] | E (Fresh weight inhibition rate<20%) | E (Fresh weight inhibition rate<20%) |  |  |  |  | Echinochloa crusgalli, control efficacy grading (fresh weight inhibition rate) (Echinochloa crusgalli [1]): A (Fresh weight inhibition rate≥80% to 100%)
2 | CC(C)[S+]([O-])c1c(S(C)(=O)=O)ccc(C(=O)N(C)c2nnco2)c1Cl (racemic) [Compound 3-804] | E (Fresh weight inhibition rate<20%) | E (Fresh weight inhibition rate<20%) | A (Fresh weight inhibition rate≥80% to 100%) |  |  |  | 
3 | Cc1nnc(N(C)C(=O)c2ccc(S(C)(=O)=O)c([S+]([O-])C(C)C)c2Cl)o1 (racemic) [Compound 3-807] | E (Fresh weight inhibition rate<20%) | E (Fresh weight inhibition rate<20%) | A (Fresh weight inhibition rate≥80% to 100%) | E (Fresh weight inhibition rate<20%) | E (Fresh weight inhibition rate<20%) |  | 
4 | CCc1nnc(N(C)C(=O)c2ccc(S(C)(=O)=O)c([S+]([O-])C(C)C)c2Cl)o1 (racemic) [Compound 3-810] | E (Fresh weight inhibition rate<20%) | E (Fresh weight inhibition rate<20%) | B (Fresh weight inhibition rate≥260% to <80%) |  |  |  | 
5 | Cn1nnnc1NC(=O)c1ccc(S(C)(=O)=O)c(S(C)(=O)=O)c1Cl [CK1, reference compound] | B (Fresh weight inhibition rate≥260% to <80%) | B (Fresh weight inhibition rate≥260% to <80%) |  | C (Fresh weight inhibition rate≥40% to <60%) | C (Fresh weight inhibition rate≥40% to <60%) | 80 to 100 | inhibition at 75 g/ha (Echinochloa crusgalli [1]; [5]): 80 to 100%; Oryza sativa subsp. japonica, grading of fresh weight inhibition rate (crop safety) ([2]; Rate 18.75 g/ha): C (Fresh weight inhibition rate≥40% to <60%); Oryza sativa subsp. indica, grading of fresh weight inhibition rate (crop safety) ([3]; Rate 18.75 g/ha): C (Fresh weight inhibition rate≥40% to <60%)
6 | CCS(=O)(=O)c1c(S(C)(=O)=O)ccc(C(=O)Nc2nnnn2C)c1Cl [CK2, reference compound] | B (Fresh weight inhibition rate≥260% to <80%) | B (Fresh weight inhibition rate≥260% to <80%) |  | C (Fresh weight inhibition rate≥40% to <60%) | C (Fresh weight inhibition rate≥40% to <60%) | 80 to 100 | inhibition at 75 g/ha (Echinochloa crusgalli [1]; [5]): 80 to 100%; Oryza sativa subsp. japonica, grading of fresh weight inhibition rate (crop safety) ([2]; Rate 18.75 g/ha): C (Fresh weight inhibition rate≥40% to <60%); Oryza sativa subsp. indica, grading of fresh weight inhibition rate (crop safety) ([3]; Rate 18.75 g/ha): C (Fresh weight inhibition rate≥40% to <60%)
7 | Cc1nnc(N(C)C(=O)c2ccc(S(C)(=O)=O)c([S+](C)[O-])c2Cl)o1 (stereo not drawn) [CK5, reference compound] | E (Fresh weight inhibition rate<20%) | D (Fresh weight inhibition rate≥20% to <40%) |  | E (Fresh weight inhibition rate<20%) | E (Fresh weight inhibition rate<20%) | 20 to 40 | inhibition at 18.75 g/ha (Echinochloa crusgalli [1]; Echinochloa crus-galli, Rate 18.75 g/ha, read-out: Echinochloa crusgalli, control efficacy grading (fresh weight inhibition rate)): < 20%; inhibition at 75 g/ha (Echinochloa crusgalli [1]; [5]): < 20%; Oryza sativa subsp. japonica, grading of fresh weight inhibition rate (crop safety) ([2]; Rate 18.75 g/ha): E (Fresh weight inhibition rate<20%); Oryza sativa subsp. indica, grading of fresh weight inhibition rate (crop safety) ([3]; Rate 18.75 g/ha): E (Fresh weight inhibition rate<20%)
8 | CCCS(=O)(=O)c1c(S(C)(=O)=O)ccc(C(=O)Nc2nnnn2CC)c1Cl [Compound 1-91] | E (Fresh weight inhibition rate<20%) | E (Fresh weight inhibition rate<20%) |  |  |  |  | Echinochloa crusgalli, control efficacy grading (fresh weight inhibition rate) (Echinochloa crusgalli [1]): A (Fresh weight inhibition rate≥80% to 100%)
9 | CCn1nnnc1NC(=O)c1ccc(S(C)(=O)=O)c(S(=O)(=O)C(C)C)c1Cl [Compound 1-96, 2-chloro-N-(1-ethyl-1H-tetrazol-5-yl)-3-(isopropylsulfonyl)-4-(methylsulfonyl)benzamide] | E (Fresh weight inhibition rate<20%) | E (Fresh weight inhibition rate<20%) |  |  |  | 80 to 100 | 
10 | CCC[S+]([O-])c1c(S(C)(=O)=O)ccc(C(=O)Nc2nnc(C(C)C)o2)c1Cl (stereo not drawn) [Compound 3-500, 2-chloro-N-(5-isopropyl-1,3,4-oxadiazol-2-yl)-4-(methylsulfonyl)-3-(propylsulfinyl)benzamide] |  |  |  |  |  |  | pest or weed control at 150 g/ha (Echinochloa crusgalli [4]): 80 to 100%; pest or weed control at 150 g/ha (Eclipta prostrata): 80 to 100%; pest or weed control at 150 g/ha (Leptochloa chinensis): 80 to 100%; pest or weed control at 150 g/ha (Digitaria sanguinalis): 80 to 100%; pest or weed control at 150 g/ha (Cyperus iria): 80 to 100%
11 | CS(=O)(=O)c1ccc(C(=O)Nc2nnc(C3CC3)o2)c(Cl)c1SC1CC1 [Compound 3-651] |  |  | A (Fresh weight inhibition rate≥80% to 100%) |  |  |  | Control efficacy grade, Eclipta prostrata (Eclipta prostrata): A (Fresh weight inhibition rate≥80% to 100%); Control efficacy grade, Leptochloa chinensis (Leptochloa chinensis): A (Fresh weight inhibition rate≥80% to 100%); Control efficacy grade, Digitaria sanguinalis (Digitaria sanguinalis): A (Fresh weight inhibition rate≥80% to 100%); Control efficacy grade, Cyperus iria (Cyperus iria): A (Fresh weight inhibition rate≥80% to 100%)
12 | Cc1nonc1NC(=O)c1ccc(S(C)(=O)=O)c([S+]([O-])CC2CC2)c1Cl (stereo not drawn) [Compound 4-33, 2-chloro-3-((cyclopropylmethyl)sulfinyl)-N-(4-methyl-1,2,5-oxadiazol-3-yl)-4-(methylsulfonyl)benzamide] |  |  |  |  |  |  | pest or weed control at 150 g/ha (Echinochloa crusgalli [4]): 80 to 100%; pest or weed control at 150 g/ha (Eclipta prostrata): 80 to 100%; pest or weed control at 150 g/ha (Leptochloa chinensis): 80 to 100%; pest or weed control at 150 g/ha (Digitaria sanguinalis): 80 to 100%; pest or weed control at 150 g/ha (Cyperus iria): 80 to 100%
